Test results: US11365227B2, “Peptide and pharmaceutical compositions of same for use as an antimicrobial and in cancer treatment” (UNIVERSITAT DE VALÈNCIA, priority 2017, dated 2022)
Where no end group is shown, it is not given here.

How the values were obtained:
[1] = system: MDA-MB-231 triple-negative breast cancer cells; assay: MTS cell viability, combined treatments of PaSK with chemotherapeutic agents
[2] = system: S. aureus; assay: Antimicrobial activity by flow cytometry (SYBR Green / propidium iodide); format: cell-based, Staphylococcus aureus subsp. aureus CECT 4013; settings: 25 μg/mL, 8 h at 37° C., 2 replicates
Description: The strain used was CECT 4013 of S. aureus subsp. aureus, publicly accessible deposited in the Spanish Type Culture Collection (CECT).
Starting from cells of S. aureus cultured overnight in a liquid medium LB (peptone 1%, yeast extract 0.5% and NaCl 1%) at 37° C. with stirring, aliquots were obtained in a new liquid medium and allowed to grow until reaching an optical density at 600 nm (OD600) of 0.5, optimum for detection in the flow cytometer. Aliquots were prepared with a concentration of 5×10^6 cfu/100 μL of S. aureus to which were added 10, 15, 20 and 25 μg/mL of PaSK, 25 μg/mL of TcDef3-pep and H2O (negative control), solvent used to dilute the peptides. The mixtures were incubated at 37° C. for 8 h and marked with the fluorochromes SYBR Green (Invitrogen) (25 μL of a SYBR Green 25× solution in H2O) that stains all the cells and propidium iodide (Sigma) (10 μL of propidium iodide 1 mg/mL) that stains dead cells. Finally, the cell death caused by the peptides was analysed by flow cytometry with the equipment BD Facs Verse (Becton Dickinson), from the cell culture and flow cytometry section of the Central Services for Research Support of the University of Valencia. The experiments were performed in duplicate.
The flow cytometer forces cells to pass one by one through a needle, creating a thin line of liquid and detecting how the laser beam (argon emission laser at 488 nm, in the equipment used) interacts with the cells, depending on how the incident light is deviated and the fluorescence emitted by the excited fluorochromes. The results are presented as graphs obtained with the analysis program BD Facs suite v1.0.5.3841 (Becton Dickinson). […] Then, a second graph is obtained with the parameters SSC and FITC (fluorescence parameter indicating the cells containing SYBR Green), to differentiate the cells from the other particles that may be present in the sample. Lastly, a third graph is obtained with the fluorescence parameters FITC and PerCPCy5.5 (indicating the cells stained with propidium iodide) to differentiate the cells that have been stained only by SYBR Green from those stained with propidium iodide, which will be those that have died.
The antimicrobial activity of the peptide PaSK was determined by flow cytometry. […] Therefore, the use of these two fluorochromes provides a method for determining viable cells, quantifying the loss of cell viability from the increase in propidium iodide inside the dead cells.
After incubating the cells of strain CECT 4013 of S. aureus with 25 μg/mL of the peptides TcDef3-pep and PaSK, the percentage of dead cells was determined. […] FIGS. 1A-1D show the graphs corresponding to the fluorescence obtained in the windows of the flow cytometer.

[3] = system: S. aureus; assay: Scanning electron microscopy of S. aureus cells treated with peptides; format: cell-based, Staphylococcus aureus subsp. aureus CECT 4013; settings: 25 μg/mL, 1 h
Description: The cells were prepared in the same way as for the flow cytometry technique and the same aliquots and treatments were performed. The samples were incubated at 37° C. for 1 h. The bacteria were fixed with Karnosky (2.5% paraformaldehyde and 0.5 glutaraldehyde) for 2 h at 4° C. After washing (centrifuging and eliminating the supernatant) they were fixed with 2% osmium tetraoxide for another 2 h, washed again and filtered with a 0.2 μm filter. The cells were then dehydrated in graded ethanol series (30°, 50°, 70°, 90°, 100°) for 10 min in each gradation. To carry out the critical point drying, the ethanol was replaced with liquid CO2, the temperature was increased to accelerate evaporation and the pressure was lowered slowly to conserve the exact shape of the bacteria. Finally, shading with gold palladium was performed for 2 min observing the results in the equipment FEG-SEM HITACHI S4800 at 10 Kv.
Scanning electron microscopy provides high-resolution images used to view the damage caused by the peptides to the bacterial membrane. The cells of S. aureus CECT 4013 were treated with the peptides hBD-3, TcDef3-pep and PaSK at a concentration of 25 μg/mL, for 1 h, and analysed using scanning electron microscopy (FIG. 4). In cells without treatment the circular and uniform form typical of S. aureus was observed, with the intact membrane, while in treated cells various types of morphological alterations can be seen. […] With this treatment small circular structures are observed, smaller than the cells of S. aureus.

[4] = system: S. aureus; assay: Transmission electron microscopy of S. aureus cells treated with peptides; format: cell-based, Staphylococcus aureus subsp. aureus CECT 4013; settings: 25 μg/mL, 1 h
Description: The samples were prepared in the same way as for scanning electron microscopy, except for the series of graded dehydration with ethanol, in which only the 90° grade was reached. Then the samples were included in resin in 4 steps: ethanol 96°—resin LR-White 2:1 (20 h), ethanol 100°—resin 2:1 (20 h), ethanol 100°—resin 1:2 (20 h) and 100% resin (24 h at 60° C.). After the samples were included in the resin the block was prepared for ultrathin cuts of 60 nm in the equipment Leica UC6 Ultracut Microtome.
Transmission electron microscopy provides high-resolution images which were used to view the ultrastructural damage caused by the peptides inside the bacteria. The cells of S. aureus CECT 4013 were treated with the peptides hBD-3, TcDef3-pep and PaSK at a concentration of 25 μg/mL, for 1 h, and analysed using transmission electron microscopy (FIG. 6). In cells without treatment, an intact cytoplasm membrane (3) and peptidoglycane wall (2) were observed, typical of a Gram+ bacteria as S. aureus, as well as a division septum (1) without malformations, while in treated cells different types of alterations were observed. […] Small size circular structures (9) are observed. These structures show a different electrodensity from cells and lack a cytoplasm membrane and peptidoglycane wall. The biofilm formed by the cells treated with peptides was also observed in the images obtained by transmission electron microscopy (FIG. 7) and it was not observed in the cells treated with human defensin hBD-3 (FIG. 6).

[5] = system: S. aureus; settings: 10 μg/mL; Contreras et al., 2015; cited from earlier work
[6] = chemotherapeutic agent alone, 72 h, 3 replicates

Q: Which EC50 ([1]; Homo sapiens, MDA-MB-231, 72 h) does the source give for `COc1cccc2c1C(=O)c1c(O)c3c(c(O)c1C2=O)C[C@@](O)(C(=O)CO)C[C@@H]3O[C@H]1C[C@H](N)[C@H](O)[C@H](C)O1` [doxorubicin] here?
A: 0.407 ± 0.033 µM

Q: Which EC50 [1, 6] does the source give for `O=c1[nH]cc(F)c(=O)[nH]1` [5-fluorouracyl] here?
A: 25.3 ± 4.33 µM

Q: With `CC(=O)O[C@H]1C(=O)[C@@]2(C)[C@H]([C@H](OC(=O)c3ccccc3)[C@]3(O)C[C@H](OC(=O)[C@H](O)[C@@H](NC(=O)c4ccccc4)c4ccccc4)C(C)=C1C3(C)C)[C@]1(OC(C)=O)CO[C@@H]1C[C@@H]2O` [paclitaxel] as the compound, how does the EC50 ([1]; Homo sapiens, MDA-MB-231, 72 h) read?
A: 0.008 ± 0.005 µM

Q: Which “percentage of dead cells (cytotoxicity)” value [2] does the source give for “TcDef3-pep: 29 amino acid peptide fragment of Tribolium castaneum defensin 3, SEQ ID NO: 2, disclosed in Contreras et al., 2015 (VNHAACAAHCLLKRKRGGYCNKRRICVCR)” here?
A: ~55%

Q: What about the “biofilm formation, scanning electron microscopy” value [3] of the same compound?
A: biofilm produced

Q: What about the “morphological alterations, scanning electron microscopy” value [3] of the same compound?
A: bulges are observed in the bacterial membrane

Q: What about the “ultrastructural damage, transmission electron microscopy” value [4] of the same compound?
A: malformations and bulges in the bacterial membrane

Q: What about the mortality percentage [5] of the same compound?
A: 9.2%

Q: Which “percentage of dead cells (cytotoxicity)” value [2] does the source give for “hBD-3: human defensin hBD-3 (PeptaNova), positive control (GIINTLQKYYCRVRGGRCAVLSCLPKEEQIGKCSTRGRKCCRRKK; ends and bridges not checked; cysteine pairing not given here; UniProt P81534 23-67, looked up)” here?
A: around 70%

Q: What about the “biofilm formation, scanning electron microscopy” value [3] of the same compound?
A: did not form a biofilm

Q: And the “morphological alterations, scanning electron microscopy” value [3]?
A: structural damage and lysis of the membrane

Q: What about the “ultrastructural damage, transmission electron microscopy” value [4] of the same compound?
A: malformations (4) and lysis of the membrane

Q: For `N.N.[Cl][Pt][Cl]` [cisplatin], which EC50 [1, 6] is on record?
A: 168 ± 53.9 µM
